According to patent US20050171185A1, “Indole derivatives” (Fujisawa Pharmaceutical Co., Ltd., a Japanese corporation, priority 1998, published 2005):

Test system: db/db mice
Test: Test for activity of decreasing plasma glucose using db/db mice
Type: in vivo
Details: female db/db mice, test compound mixed in powdered chow (0.01%) for 14 days, dose 3.2 mg/kg; difference between db/db and +/+ mouse groups defined as 100%
Description: Test Example: Test for Activity of Decreasing Plasma Glucose Using db/db Mice
3-(1-bromonaphthalen-2-ylmethyl)-5-((5-chloro-2-thiophenylsulfonyl)carbamoyl)-2-methylindole (Compound (23))
Five-week-old female mice [C57BL/KsJ-dbm db+/db+, C57BL/KsJ-dbm +m/+m (Jackson Laboratory)] were purchased, and were kept for 2 to 3 weeks. Then, these mice were used in the test.
A test compound was mixed with a powdered chow (CE-2, made by Nippon Clea) using a mortar. The mixing ratio was 0.01%. The mixed chow was changed twice a week for each group. The feed amount and the remaining amount were recorded, and the intake was calculated from the difference therebetween.
The female db/db mice were grouped according to the body weight, the plasma glucose, and the plasma triglyceride concentrations. […] Plasma glucose, triglyceride, and insulin concentrations were measured on day 0 and day 14 as well as plasma glucose and triglyceride concentrations on day 7. The body weight was measured on day 0, day 7, and day 14. […]
The plasma glucose was measured by a glucose oxidase method (Glucose CII-Test Wako made by Wako Pure Chemical Industries, Ltd.) using from 10 to 15 μl of plasma. The plasma triglyceride concentration was measured by a GPO-p-chlorophenol method (Triglyceride G-Test Wako made by Wako Pure Chemical Industries, Ltd.) or a GPO-DAOS method (Triglyceride E-Test Wako) using from 10 to 15 μl of plasma. […]

Cc1[nH]c2ccc(C(=O)NS(=O)(=O)c3ccc(Cl)s3)cc2c1Cc1ccc2ccccc2c1Br [Compound (23), 3-((1-bromonaphthalen-2-yl)methyl)-5-((5-chloro-2-thiophenesulfonyl)carbamoyl)-2-methylindole]
TG concentration-decreasing activity (rate of decrease in plasma triglyceride): 9%
plasma glucose decreasing activity (rate of decrease in plasma glucose): 19%
